Results from patent US6531435B1 (priority 2000, dated 2003).
Where two headings read alike, the source gives them in different places.

Experiments:
TSST-1 = format: cell-based, Staphylococcus aureus
S. aureus MN8 = format: cell-based, Staphylococcus aureus; conditions: 24 hours at 35° C.

Substance	TSST-1 (TSST-1; 24 hours at 35° C.)	Final [S. aureus] (×10^9 CFU/ml) (S. aureus MN8)	TSST-1 (TSST-1)
Laureth-4	531.8 ng/mL	4.57 ×10^9 CFU/ml	–
Steareth-2	680.7 ng/mL	5.76 ×10^9 CFU/ml	–
PPG-5 Laureth-5	–	3.82 ×10^9 CFU/ml	609.2 ng/mL
